Assay results: ChEMBL document CHEMBL1136863, “Identification and SAR of squarate inhibitors of mitogen activated protein kinase-activated protein kinase 2 (MK-2)” (Bioorg Med Chem, 2009)

How the values were obtained:
[1] = target: Cytochrome P450 2C9 (Homo sapiens, UniProt P11712); test: Inhibition of CYP2C9; type: ADME
[2] = target: Mitogen-activated protein kinase 14 (Homo sapiens, UniProt Q16539); test: Inhibition of p38alpha
[3] = target: Cytochrome P450 2D6 (Homo sapiens, UniProt P10635); test: Inhibition of CYP2D6; type: ADME
Chain of Cytochrome P450 2D6 (P10635 whole entry): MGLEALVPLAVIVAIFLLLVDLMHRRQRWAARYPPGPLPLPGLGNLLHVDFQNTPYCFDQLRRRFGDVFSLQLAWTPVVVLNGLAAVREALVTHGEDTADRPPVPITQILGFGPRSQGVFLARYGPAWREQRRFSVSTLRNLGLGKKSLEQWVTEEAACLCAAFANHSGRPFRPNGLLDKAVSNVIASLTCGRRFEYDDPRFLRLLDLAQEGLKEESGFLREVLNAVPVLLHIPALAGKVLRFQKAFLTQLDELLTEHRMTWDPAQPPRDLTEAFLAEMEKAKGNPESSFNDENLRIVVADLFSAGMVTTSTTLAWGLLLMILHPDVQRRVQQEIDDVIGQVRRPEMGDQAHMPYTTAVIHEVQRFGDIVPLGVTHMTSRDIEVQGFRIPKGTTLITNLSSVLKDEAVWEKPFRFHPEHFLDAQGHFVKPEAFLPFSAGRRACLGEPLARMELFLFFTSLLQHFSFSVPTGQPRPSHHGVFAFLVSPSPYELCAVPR

[4] = target: Ribosomal protein S6 kinase alpha-1 (Homo sapiens, UniProt Q15418); test: Inhibition of RSK1
Chain of Ribosomal protein S6 kinase alpha-1 (Q15418 whole entry): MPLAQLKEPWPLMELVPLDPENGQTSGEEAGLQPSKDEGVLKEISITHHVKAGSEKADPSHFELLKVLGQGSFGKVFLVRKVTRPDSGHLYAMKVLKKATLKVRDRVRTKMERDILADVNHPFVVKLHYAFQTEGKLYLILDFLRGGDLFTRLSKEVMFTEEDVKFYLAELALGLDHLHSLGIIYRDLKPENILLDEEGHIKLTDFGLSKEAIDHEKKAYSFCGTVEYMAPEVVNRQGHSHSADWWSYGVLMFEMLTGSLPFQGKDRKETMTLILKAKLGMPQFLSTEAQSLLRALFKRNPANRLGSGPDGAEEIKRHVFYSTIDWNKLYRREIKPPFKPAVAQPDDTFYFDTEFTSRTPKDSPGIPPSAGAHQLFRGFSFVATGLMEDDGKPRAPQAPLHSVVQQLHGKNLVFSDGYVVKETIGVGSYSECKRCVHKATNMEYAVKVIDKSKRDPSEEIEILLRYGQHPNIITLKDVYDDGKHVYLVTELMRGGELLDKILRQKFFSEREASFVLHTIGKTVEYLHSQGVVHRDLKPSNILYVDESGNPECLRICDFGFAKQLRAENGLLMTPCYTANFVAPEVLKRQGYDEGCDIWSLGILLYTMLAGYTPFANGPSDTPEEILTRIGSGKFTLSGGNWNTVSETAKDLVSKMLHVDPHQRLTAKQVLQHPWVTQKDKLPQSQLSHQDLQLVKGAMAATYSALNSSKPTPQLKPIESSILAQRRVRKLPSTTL

[5] = target: T1, Inhibitor of nuclear factor kappa-B kinase subunit alpha (Homo sapiens, UniProt O15111); test: Inhibition of IKKalpha
T1 sequence (O15111 whole entry): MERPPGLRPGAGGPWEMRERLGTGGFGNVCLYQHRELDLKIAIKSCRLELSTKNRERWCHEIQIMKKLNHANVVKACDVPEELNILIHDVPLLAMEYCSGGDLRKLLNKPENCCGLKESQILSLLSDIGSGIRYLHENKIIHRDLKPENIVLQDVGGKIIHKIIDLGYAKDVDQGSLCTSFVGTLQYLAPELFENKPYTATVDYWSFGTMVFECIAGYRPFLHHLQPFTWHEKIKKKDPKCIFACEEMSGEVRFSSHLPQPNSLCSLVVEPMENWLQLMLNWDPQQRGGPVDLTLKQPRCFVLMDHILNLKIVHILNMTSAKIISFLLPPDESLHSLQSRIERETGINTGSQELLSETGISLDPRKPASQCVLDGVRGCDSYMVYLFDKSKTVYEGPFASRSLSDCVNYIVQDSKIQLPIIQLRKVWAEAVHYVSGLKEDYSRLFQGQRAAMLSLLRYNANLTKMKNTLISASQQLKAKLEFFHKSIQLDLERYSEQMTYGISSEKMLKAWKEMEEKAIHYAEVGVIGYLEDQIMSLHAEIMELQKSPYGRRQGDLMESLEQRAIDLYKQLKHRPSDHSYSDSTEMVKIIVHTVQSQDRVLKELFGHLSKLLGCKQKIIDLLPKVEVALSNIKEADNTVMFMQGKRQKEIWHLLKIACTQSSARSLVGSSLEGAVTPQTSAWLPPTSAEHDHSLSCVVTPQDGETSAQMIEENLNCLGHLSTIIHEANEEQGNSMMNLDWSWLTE

[6] = target: Protein kinase C alpha type (Homo sapiens, UniProt P17252); test: Inhibition of PKCalpha
[7] = target: Cytochrome P450 3A4 (Homo sapiens, UniProt P08684); test: Inhibition of CYP3A4; type: ADME
Chain of Cytochrome P450 3A4 (P08684 whole entry): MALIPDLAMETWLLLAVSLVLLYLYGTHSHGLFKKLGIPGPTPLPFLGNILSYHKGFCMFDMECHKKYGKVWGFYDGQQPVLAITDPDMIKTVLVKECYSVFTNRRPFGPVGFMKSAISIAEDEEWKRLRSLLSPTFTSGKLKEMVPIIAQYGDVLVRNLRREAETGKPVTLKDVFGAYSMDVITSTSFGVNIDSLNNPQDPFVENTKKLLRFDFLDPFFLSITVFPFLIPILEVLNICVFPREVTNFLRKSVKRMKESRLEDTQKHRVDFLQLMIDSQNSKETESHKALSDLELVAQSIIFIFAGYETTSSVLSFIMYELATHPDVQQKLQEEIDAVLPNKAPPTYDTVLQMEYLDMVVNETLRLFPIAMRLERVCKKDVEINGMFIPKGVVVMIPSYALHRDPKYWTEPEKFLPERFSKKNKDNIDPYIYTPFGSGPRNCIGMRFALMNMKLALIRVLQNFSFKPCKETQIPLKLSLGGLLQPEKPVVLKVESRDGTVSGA

[8] = target: Proto-oncogene tyrosine-protein kinase Src (Homo sapiens, UniProt P12931); test: Inhibition of SRC
[9] = tested on: THP-1; test: Inhibition of LPS-stimulated TNFalpha production in human THP1 cells
[10] = target: Platelet-derived growth factor receptor alpha (Homo sapiens, UniProt P16234); test: Inhibition of PDGFRalpha
Chain of Platelet-derived growth factor receptor alpha (P16234 whole entry): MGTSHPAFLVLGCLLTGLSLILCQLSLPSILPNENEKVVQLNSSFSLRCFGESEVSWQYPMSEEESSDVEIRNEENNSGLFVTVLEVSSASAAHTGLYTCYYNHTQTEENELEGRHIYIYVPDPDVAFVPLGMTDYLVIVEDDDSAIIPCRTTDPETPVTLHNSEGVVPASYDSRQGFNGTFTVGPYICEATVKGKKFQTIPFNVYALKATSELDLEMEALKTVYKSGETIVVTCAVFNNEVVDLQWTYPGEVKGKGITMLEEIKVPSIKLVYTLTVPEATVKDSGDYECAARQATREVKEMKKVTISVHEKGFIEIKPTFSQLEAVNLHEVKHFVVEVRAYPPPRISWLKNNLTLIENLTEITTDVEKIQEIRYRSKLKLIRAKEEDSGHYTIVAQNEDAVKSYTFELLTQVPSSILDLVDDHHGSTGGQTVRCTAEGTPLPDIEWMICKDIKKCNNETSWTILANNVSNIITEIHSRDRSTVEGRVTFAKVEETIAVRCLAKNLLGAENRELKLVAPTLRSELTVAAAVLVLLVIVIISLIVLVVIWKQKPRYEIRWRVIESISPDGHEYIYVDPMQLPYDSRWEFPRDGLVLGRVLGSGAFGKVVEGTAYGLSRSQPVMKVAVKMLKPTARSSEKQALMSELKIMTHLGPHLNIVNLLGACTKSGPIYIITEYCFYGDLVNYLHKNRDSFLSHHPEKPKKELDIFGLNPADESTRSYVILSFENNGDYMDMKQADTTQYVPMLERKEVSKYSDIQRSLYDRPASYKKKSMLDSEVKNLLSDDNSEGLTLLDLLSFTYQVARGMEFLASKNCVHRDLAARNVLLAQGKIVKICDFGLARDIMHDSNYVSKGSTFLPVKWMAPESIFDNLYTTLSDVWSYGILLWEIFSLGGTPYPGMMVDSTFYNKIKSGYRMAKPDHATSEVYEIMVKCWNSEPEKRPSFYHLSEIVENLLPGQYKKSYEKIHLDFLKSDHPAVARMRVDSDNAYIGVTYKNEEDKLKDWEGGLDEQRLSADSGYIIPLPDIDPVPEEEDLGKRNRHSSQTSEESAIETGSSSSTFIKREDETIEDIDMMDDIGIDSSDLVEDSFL

[11] = target: Tyrosine-protein kinase Fyn (Homo sapiens, UniProt P06241); test: Inhibition of FYN
Chain of Tyrosine-protein kinase Fyn (P06241 whole entry, canonical isoform): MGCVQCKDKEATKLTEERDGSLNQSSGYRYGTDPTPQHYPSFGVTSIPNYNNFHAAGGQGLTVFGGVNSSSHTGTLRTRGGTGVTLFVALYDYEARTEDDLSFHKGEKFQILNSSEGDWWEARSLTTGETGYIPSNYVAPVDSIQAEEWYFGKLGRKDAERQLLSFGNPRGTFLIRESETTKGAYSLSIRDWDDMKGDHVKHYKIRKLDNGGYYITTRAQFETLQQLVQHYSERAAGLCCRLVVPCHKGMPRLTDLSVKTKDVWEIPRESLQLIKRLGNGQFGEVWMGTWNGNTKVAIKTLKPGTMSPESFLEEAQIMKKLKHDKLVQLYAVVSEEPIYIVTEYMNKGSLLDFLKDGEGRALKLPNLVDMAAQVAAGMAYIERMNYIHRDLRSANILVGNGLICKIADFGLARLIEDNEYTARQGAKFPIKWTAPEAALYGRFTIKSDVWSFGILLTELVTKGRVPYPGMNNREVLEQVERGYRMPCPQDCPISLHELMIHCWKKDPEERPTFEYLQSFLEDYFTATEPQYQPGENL

[12] = target: Casein kinase I isoform gamma-1 (Homo sapiens, UniProt Q9HCP0); test: Inhibition of CK1-gamma1
[13] = target: Aurora kinase B (Homo sapiens, UniProt Q96GD4); test: Inhibition of Aurora B
Chain of Aurora kinase B (Q96GD4 whole entry): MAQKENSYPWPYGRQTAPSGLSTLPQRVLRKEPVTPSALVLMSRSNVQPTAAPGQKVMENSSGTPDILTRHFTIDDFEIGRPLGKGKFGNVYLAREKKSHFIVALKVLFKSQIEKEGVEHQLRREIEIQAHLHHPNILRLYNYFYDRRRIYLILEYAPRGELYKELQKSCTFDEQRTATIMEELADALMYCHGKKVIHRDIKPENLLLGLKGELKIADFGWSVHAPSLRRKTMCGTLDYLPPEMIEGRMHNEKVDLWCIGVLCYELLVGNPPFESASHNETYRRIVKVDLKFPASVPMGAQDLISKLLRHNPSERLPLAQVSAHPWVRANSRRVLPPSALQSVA

[14] = target: MAP kinase-activated protein kinase 2 (Homo sapiens, UniProt P49137)
Description: Inhibition of human recombinant MK2

[15] = target: Mitogen-activated protein kinase 1 (Homo sapiens, UniProt P28482); test: Inhibition of ERK2
[16] = target: Rho-associated protein kinase 1 (Homo sapiens, UniProt Q13464); test: Inhibition of ROCK1
[17] = target: CYP2D6 (Homo sapiens, UniProt P10635); test: Inhibition of CYP2D6 at 3 uM; type: ADME
Chain of CYP2D6 (P10635 whole entry): as the sequence (P10635 whole entry) above

[18] = target: CYP3A4 (Homo sapiens, UniProt P08684); test: Inhibition of CYP3A4 at 3 uM; type: ADME
Chain of CYP3A4 (P08684 whole entry): as the sequence (P08684 whole entry) above

[19] = target: CYP2C9 (Homo sapiens, UniProt P11712); test: Inhibition of CYP2C9 at 3 uM; type: ADME

Chain of Mitogen-activated protein kinase 14 (Q16539 whole entry): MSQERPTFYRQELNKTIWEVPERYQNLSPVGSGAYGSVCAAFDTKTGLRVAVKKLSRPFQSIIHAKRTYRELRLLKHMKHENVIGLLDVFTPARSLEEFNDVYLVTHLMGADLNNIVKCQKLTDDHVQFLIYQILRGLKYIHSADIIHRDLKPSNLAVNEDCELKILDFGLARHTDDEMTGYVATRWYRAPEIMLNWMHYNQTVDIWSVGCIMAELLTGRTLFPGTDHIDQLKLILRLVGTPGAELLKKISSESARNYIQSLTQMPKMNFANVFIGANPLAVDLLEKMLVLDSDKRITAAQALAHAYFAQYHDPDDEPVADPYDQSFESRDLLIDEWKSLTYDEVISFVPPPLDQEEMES

Row | Compound | IC50 [2] [µM] | IC50 [4] [µM] | IC50 [5] [µM] | IC50 [6] [µM] | IC50 [8] [µM] | IC50 [9] [µM] | IC50 [10] [µM] | IC50 [11] [µM] | IC50 [12] [µM] | IC50 [13] [µM] | IC50 [14] [µM] | IC50 [15] [µM] | also measured
1 | C[C@@H](Nc1c(Nc2ccncc2)c(=O)c1=O)c1ccccc1 | > 50 | 0.81 | > 50 | > 50 | > 50 | 10.8 | 40.5 | > 50 | – | – | – | – | IC50 [1]: 0.6 µM; IC50 [3]: 3.3 µM; IC50 [7]: 1.3 µM
2 | CC(Nc1c(Nc2ccncc2)c(=O)c1=O)c1cccc(O)c1 (configuration not stated) | – | – | – | – | – | 34 | – | – | – | – | – | – | –
3 | C[C@@H](Nc1c(Nc2ccnc(-c3ccccc3F)c2)c(=O)c1=O)c1ccccc1 | 21.7 | > 50 | > 50 | > 50 | > 50 | 2.2 | > 50 | > 50 | > 50 | > 50 | 5.8 | > 50 | IC50 [16]: > 50 µM
4 | C[C@@H](Nc1c(Nc2cccnc2)c(=O)c1=O)c1ccccc1 | – | – | – | – | – | – | – | – | – | – | > 100 | – | inhibition at 3 µM [17]: 26%; inhibition at 3 µM [18]: 16%; inhibition at 3 µM [19]: 1%
5 | NC(=O)C(Nc1c(Nc2ccncc2)c(=O)c1=O)c1cccc(O)c1 (configuration not stated) | > 50 | 0.29 | > 50 | 33.6 | > 50 | 17 | 11.1 | > 50 | 0.16 | 1.4 | 0.39 | 4.2 | IC50 [1]: 6.5 µM; IC50 [3]: > 10 µM; IC50 [16]: 0.06 µM; IC50 [7]: > 10 µM
6 | C[C@@H](Nc1c(Nc2ccncn2)c(=O)c1=O)c1ccccc1 | – | – | – | – | – | – | – | – | – | – | > 100 | – | –
7 | C[C@@H](Nc1c(Nc2ccnc(-c3ccco3)c2)c(=O)c1=O)c1ccccc1 | > 50 | > 50 | > 50 | > 50 | > 50 | 2.1 | 27.1 | > 50 | 4.9 | 8.8 | 5.3 | 35 | IC50 [16]: > 50 µM
8 | C[C@@H](Nc1c(Nc2ccn[nH]2)c(=O)c1=O)c1ccccc1 | – | – | – | – | – | – | – | – | – | – | > 100 | – | IC50 [1]: 12 µM; IC50 [7]: 40 µM

The next lines start with results.

Row | IC50 [2] [µM] | IC50 [4] [µM] | IC50 [5] [µM] | IC50 [6] [µM] | IC50 [8] [µM] | IC50 [9] [µM] | IC50 [10] [µM] | IC50 [11] [µM] | IC50 [12] [µM] | IC50 [13] [µM] | IC50 [14] [µM] | IC50 [15] [µM] | Compound | also measured
9 | > 50 | 0.78 | > 50 | – | > 50 | > 40 | 44 | > 50 | 0.52 | 6 | 4.5 | 6.3 | NC(=O)C(Nc1c(Nc2ccncc2)c(=O)c1=O)c1ccccc1 (configuration not stated) | IC50 [1]: 5.1 µM; IC50 [3]: > 10 µM; IC50 [7]: 8.6 µM
10 | – | – | – | – | – | – | – | – | – | – | > 100 | – | C[C@H](c1ccccc1)N(C)c1c(Nc2ccncc2)c(=O)c1=O | –
11 | – | – | – | – | – | – | – | – | – | – | > 100 | – | C[C@@H](Nc1c(N(C)c2ccncc2)c(=O)c1=O)c1ccccc1 | –
12 | – | – | – | – | – | – | – | – | – | – | > 100 | – | C[C@@H](Nc1c(Nc2ccnc(Cl)c2)c(=O)c1=O)c1ccccc1 | –
13 | – | – | – | – | – | 1.1 | – | – | – | – | – | – | C[C@@H](Nc1c(Nc2ccnc(Nc3ccncn3)c2)c(=O)c1=O)c1ccccc1 | –
14 | > 50 | > 50 | > 50 | > 50 | > 50 | – | 36.2 | 15.3 | 11.6 | 10.8 | 5.4 | > 50 | C[C@@H](Nc1c(Nc2ccnc(-c3ccsc3)c2)c(=O)c1=O)c1ccccc1 | IC50 [16]: > 50 µM
